Reference: article PMC10350552, “Investigation of the GnRH antagonist degarelix isomerization in biological matrices” (Pharmacology Research & Perspectives, 2023)
Where a SMILES comes first, the peptide text is derived from it. [ ]: non-standard residue; d: D form. The star is where a group is joined. dPhe(4-NHCONH2) = NC(=O)Nc1ccc(C[C@@H](N)C(=O)O)cc1; Dihydroorotyl(S) = O=C1C[C@@H](C(=O)*)NC(=O)N1; dPhe(4-Cl) = N[C@H](Cc1ccc(Cl)cc1)C(=O)O; Phe(4-NH2) = Nc1ccc(C[C@H](N)C(=O)O)cc1; d2Nal = N[C@H](Cc1ccc2ccccc2c1)C(=O)O; Lys(iPr) = CC(C)NCCCC[C@H](N)C(=O)O; X1 = O=C1NC(=O)[C@H](CC(=O)*)N1; d3Pal = N[C@H](Cc1cccnc1)C(=O)O

Legend:
in vitro = conditions: male, human, plasma, pH 7.8
Method: Degarelix or 5‐Hyd‐degarelix test solutions (10 μL of 180 μg/mL degarelix or 5‐Aph(Hyd)‐degarelix in 20% acetonitrile) were each mixed with 890 μL of human plasma, Dulbecco buffer (5 mM NaH2PO4, 20 mM Na2HPO4, 5 mM KCl, 120 mM NaCl, adjusted to pH 7.4 with NaOH), 4.5% human serum albumin solution (HSA solution), and human serum albumin solution with 0.21 mg/mL warfarin: 3960 μL HSA solution +40 μL warfarin stock solution (21 mg warfarin in 1 mL water)to a final concentration of 2000 ng/mL of each analyte and 0.2% of acetonitrile. […] The samples were then diluted with 10 μL of the solution of 0.1% of formic acid in 20% acetonitrile and 70 μL of acetonitrile. The solutions were shaken and centrifuged. To 50 μL of the supernatant, 20 μL of water and 0.2% of formic acid were added and the solution was used for HPLC analysis. All the experiments were repeated three times.
The ANALYST software was used to integrate all peaks automatically by use of the IntelliQuan algorithm and to calculate the calibration curves of degarelix and 5‐Aph(Hyd)‐degarelix by linear regression with a weighting of 1/x ^2. The parameters for peak integrations were adapted for all samples in each analytical batch. The ANALYST software was used to calculate the concentrations of the test and QC samples based on the corresponding calibration curves.

[1] = Stability in HSA solution with warfarin; type: in vitro ADME, human; conditions: 37°C, 2000 ng/mL, up to 48 h
Excerpt: (§1) The solutions were shaken and centrifuged. […] All the experiments were repeated three times.

[2] = Stability in 4.5% human serum albumin (HSA) solution without warfarin; type: in vitro ADME; conditions: 37°C, 2000 ng/mL, up to 48 h
Excerpt: as §1

[3] = in vivo; cited from earlier work
[4] = test system: human cytochrome P450 system; conditions: cited from earlier work
[5] = test system: human serum albumin (HSA); conditions: cited from earlier work
Excerpt: After its approval by FDA in 2008, degarelix became the most widely used GnRH antagonist in patients with advanced prostate cancer.[17] The advantages of degarelix are its high affinity to the GnRH receptor, increased hydrophilicity, and decreased propensity to form gels. As a result, degarelix has better bioavailability than the previous GnRH antagonists. These improved characteristics are related to the presence of additional 4‐[(aminocarbonyl)amino]‐phenylalanine [Aph(Cbm)] and 4‐[(dihydroorotyl)amino]‐phenylalanine [Aph(Hor)] moieties, which afford multiple hydrogen‐bonding sites and permi ...

remaining at 8 h, 2000 ng/mL (in vitro)	remaining at 24 h, 2000 ng/mL (in vitro)	remaining at 32 h, 2000 ng/mL (in vitro)	remaining at 48 h, 2000 ng/mL (in vitro)	Change in the 5-Aph(Hyd)-degarelix content ([1]; 5-Aph(Hyd)-degarelix in HSA solution with warfarin)	Formation of 5-Aph(Hyd)-degarelix from degarelix ([1]; degarelix in 4.5% HSA solution with 0.21 mg/mL warfarin (equimolar to albumin), HPLC-MS/MS)	Change in the 5-Aph(Hyd)-degarelix content ([2]; 5-Aph(Hyd)-degarelix in 4.5% HSA solution without warfarin)	Formation of 5-Aph(Hyd)-degarelix from degarelix ([2]; degarelix in 4.5% HSA solution without warfarin, HPLC-MS/MS)	Compound	Time to reach the maximum concentration in the blood [3]	Substrate for the human cytochrome P450 system [4]	Binding to human serum albumin (HSA) [5]
103%	93%	91%	80%	we did not see any change	No 5‐Aph(Hyd)‐degarelix was observed	we did not see any change	No 5‐Aph(Hyd)‐degarelix was observed	CC(=O)N[C@H](Cc1ccc2ccccc2c1)C(=O)N[C@H](Cc1ccc(Cl)cc1)C(=O)N[C@H](Cc1cccnc1)C(=O)N[C@@H](CO)C(=O)N[C@@H](Cc1ccc(NC(=O)C[C@@H]2NC(=O)NC2=O)cc1)C(=O)N[C@H](Cc1ccc(NC(N)=O)cc1)C(=O)N[C@@H](CC(C)C)C(=O)N[C@@H](CCCCNC(C)C)C(=O)N1CCC[C@H]1C(=O)N[C@H](C)C(N)=O [5‐Aph(Hyd)‐degarelix] (Ac-[d2Nal][dPhe(4-Cl)][d3Pal]S[Phe(4-NH2)](X1)[dPhe(4-NHCONH2)]L[Lys(iPr)]P[dA]-NH2)			
104%	92%	91%	74%					CC(=O)N[C@H](Cc1ccc2ccccc2c1)C(=O)N[C@H](Cc1ccc(Cl)cc1)C(=O)N[C@H](Cc1cccnc1)C(=O)N[C@@H](CO)C(=O)N[C@@H](Cc1ccc(NC(=O)[C@@H]2CC(=O)NC(=O)N2)cc1)C(=O)N[C@H](Cc1ccc(NC(N)=O)cc1)C(=O)N[C@@H](CC(C)C)C(=O)N[C@@H](CCCCNC(C)C)C(=O)N1CCC[C@H]1C(=O)N[C@H](C)C(N)=O [degarelix] (Ac-[d2Nal][dPhe(4-Cl)][d3Pal]S[Phe(4-NH2)](Dihydroorotyl(S))[dPhe(4-NHCONH2)]L[Lys(iPr)]P[dA]-NH2)	37 to 42 h	not a substrate	76.3%
